Assay results published in patent publication USRE38117E1, “Trioxane dimer compound having antiproliferative and antitumor activities” (Hauser, Inc., priority 1995, dated 2003).
Where two headings read alike, the source gives them in different places.

Columns and labels:
Format in all cases: cell-based
[1] = test system: OVCAR-5; assay: NCI 60 cell line screen (SRB), Ovarian Cancer; conditions: OVCAR-5 (Ovarian Cancer)
[2] = test system: BT-549; assay: NCI 60 cell line screen (SRB), Breast Cancer; conditions: BT-549 (Breast Cancer)
[3] = test system: MDA-MB-435; assay: NCI 60 cell line screen (SRB), Breast Cancer; conditions: MDA-MB-435 (Breast Cancer)
[4] = test system: UACC-257; assay: NCI 60 cell line screen (SRB), Melanoma; conditions: UACC-257 (Melanoma)
[5] = test system: SNB-75; assay: NCI 60 cell line screen (SRB), CNS Cancer; conditions: SNB-75 (CNS Cancer)
[6] = test system: SF-295; assay: NCI 60 cell line screen (SRB), CNS Cancer; conditions: SF-295 (CNS Cancer)
[7] = test system: RPMI-8226; assay: NCI 60 cell line screen (SRB), Leukemia; conditions: RPMI-8226 (Leukemia)
[8] = test system: murine keratinocyte cell line PE; assay: Growth inhibition of PE cells (MTT assay); conditions: murine keratinocytes, FIGS. 1-9
Experimental: To determine the inhibitory effect of the trioxane dimers of the present invention on cell proliferation, screening assays were performed on a murine keratinocyte cell line PE. […] PE cell culture medium consisted of Eagle's minimal essential medium without calcium chloride (Whittaker Bioproducts, Walkersville, Ma.) supplemented with 8% chelexed fetal calf serum and 1% antibiotic-antimycotic (Gibco BRL) and the addition of CaCl2 to 0.05 mM Ca^++. […] (St. Louis, Mo.), and TPA was supplied by L. C. Services (Woburn, Ma.). L-[^14C]ornithine ([…]) was from Amersham/Searle Corp. (Arlington Heights, Ill.). Chemical solvents used in all assays of biological activity were of the highest grade commercially available. Growth Inhibition. […] A mitochondrial dehydrogenase reduces MTT to a blue formazan product with an absorbance maximum of 505 nm in DMSO; the number of viable cells can thus be determined spectrophotometrically. PE cells were seeded at a density of 5,000 cells/well in 50 μL of medium into 96-well microtiter plates. […] The plates were fed once at 48 h, with the readdition of the vitamin D3 analogs at this time. […] After 4 h, the MTT was removed and DMSO added to dissolve the blue formazan dye. Using a microtiter plate reader, the […] was then determined and cell number calculated from blank-subtracted absorbance values.

[9] = test system: SN12C; assay: NCI 60 cell line screen (SRB), Renal Cancer
[10] = test system: MOLT-4; assay: NCI 60 cell line screen (SRB), Leukemia; conditions: MOLT-4 (Leukemia)
[11] = test system: SR; assay: NCI 60 cell line screen (SRB), Leukemia
[12] = test system: HL-60(TB); assay: NCI 60 cell line screen (SRB), Leukemia
[13] = test system: NCI-H23; assay: NCI 60 cell line screen (SRB), Non-Small Cell Lung Cancer
[14] = test system: U251; assay: NCI 60 cell line screen (SRB), CNS Cancer
[15] = test system: LOX IMVI; assay: NCI 60 cell line screen (SRB), Melanoma
[16] = test system: EKVX; assay: NCI 60 cell line screen (SRB), Non-Small Cell Lung Cancer
[17] = test system: PC-3; assay: NCI 60 cell line screen (SRB), Prostate Cancer; conditions: PC-3 (Prostate Cancer)
[18] = test system: KM12; assay: NCI 60 cell line screen (SRB), Colon Cancer
[19] = test system: TK-10; assay: NCI 60 cell line screen (SRB), Renal Cancer; conditions: TK-10 (Renal Cancer)
[20] = test system: HCT-116; assay: NCI 60 cell line screen (SRB), Colon Cancer; conditions: HCT-116 (Colon Cancer)
[21] = test system: NCI-H522; assay: NCI 60 cell line screen (SRB), Non-Small Cell Lung Cancer
[22] = test system: MDA-MB231/ATCC; assay: NCI 60 cell line screen (SRB), Breast Cancer
[23] = test system: UO-31; assay: NCI 60 cell line screen (SRB), Renal Cancer; conditions: UO-31 (Renal Cancer)
[24] = test system: COLO 205; assay: NCI 60 cell line screen (SRB), Colon Cancer; conditions: COLO 205 (Colon Cancer)
[25] = test system: ACHN; assay: NCI 60 cell line screen (SRB), Renal Cancer
[26] = test system: SK-OV-3; assay: NCI 60 cell line screen (SRB), Ovarian Cancer; conditions: SK-OV-3 (Ovarian Cancer)

COC1OC2(C)CCC3CCCC(CCOCCC4CCCC5CCC6(C)OOC45C(OC)O6)C31OO2 (stereo not shown) [Compound 6, Trioxane Ether Dimer]
Log10GI50 [1]: −6.39 M
Log10LC50 [1]: >−4.00 M
Log10TGI [1]: >−4.00 M
Log10GI50 [2]: −5.89 M
Log10LC50 [2]: >−4.00 M
Log10TGI [2]: >−4.00 M
Log10GI50 [3]: −6.38 M
Log10LC50 [3]: >−4.00 M
Log10TGI [3]: >−4.00 M
Log10GI50 [4]: −5.68 M
Log10LC50 [4]: >−4.00 M
Log10TGI [4]: >−4.00 M
Log10LC50 [5]: >−4.00 M
Log10TGI [5]: >−4.00 M
Log10GI50 [6]: −5.61 M
Log10LC50 [6]: >−4.00 M
Log10TGI [6]: >−4.00 M
Log10GI50 [7]: −6.69 M
Log10LC50 [7]: >−4.00 M
Log10TGI [7]: −5.47 M
antiproliferative activity [8]: the most antiproliferative
Log10GI50 [9]: −5.46 M
Log10LC50 [9]: >−4.00 M
Log10TGI [9]: >−4.00 M
Log10GI50 [10]: −6.27 M
Log10LC50 ([10]; listed as Ether Dimer): >−4.00 M
Log10TGI ([10]; listed as Ether Dimer): >−4.00 M
Log10LC50 ([10]; listed as either dimer): greater than −400. M
Log10TGI ([10]; listed as ether dimer): 4.50 M
Log10GI50 [11]: −7.19 M
Log10LC50 [11]: >−4.00 M
Log10TGI [11]: −5.93 M
Log10GI50 [12]: −6.48 M
Log10LC50 [12]: >−4.00 M
Log10TGI [12]: −5.77 M
Log10GI50 [13]: −6.34 M
Log10LC50 [13]: >−4.00 M
Log10TGI [13]: >−4.00 M
Log10GI50 [14]: −6.35 M
Log10LC50 [14]: >−4.00 M
Log10TGI [14]: >−4.00 M
Log10GI50 [15]: −6.52 M
Log10LC50 [15]: −4.33 M
Log10TGI [15]: −4.83 M
Log10GI50 [16]: −5.56 M
Log10LC50 [16]: >−4.00 M
Log10TGI [16]: >−4.00 M
Log10GI50 [17]: −7.85 M
Log10LC50 [17]: −4.00 M
Log10TGI [17]: −4.75 M
Log10GI50 [18]: −6.85 M
Log10LC50 [18]: >−4.00 M
Log10TGI [18]: −4.28 M
Log10GI50 [19]: −5.60 M
Log10LC50 [19]: >−4.00 M
Log10TGI [19]: −4.88 M
Log10GI50 [20]: −6.98 M
Log10LC50 [20]: >−4.00 M
Log10TGI [20]: >−4.00 M
Log10GI50 [21]: −6.13 M
Log10LC50 [21]: >−4.00 M
Log10TGI [21]: −4.76 M
Log10GI50 [22]: −5.25 M
Log10LC50 [22]: >−4.00 M
Log10TGI [22]: >−4.00 M
Log10GI50 [23]: −6.37 M
Log10LC50 [23]: −4.38 M
Log10GI50 [24]: −6.85 M
Log10LC50 [24]: −5.77 M
Log10TGI [24]: −6.36 M
Log10GI50 [25]: −5.99 M
Log10LC50 [25]: >−4.00 M
Log10TGI [25]: >−4.00 M
Log10LC50 [26]: >−4.00 M
Log10TGI [26]: >−4.00 M

COC1OC2(C)CCC3CCCC(CCOC(=O)c4ccc(C(=O)OCCC5CCCC6CCC7(C)OOC56C(OC)O7)cc4)C31OO2 (stereo not shown) [Compound 11, Bis-ester Dimer]
Log10GI50 [1]: −5.45 M
Log10LC50 [1]: >−4.00 M
Log10TGI [1]: >−4.00 M
Log10GI50 [2]: −5.44 M
Log10LC50 [2]: >−4.00 M
Log10TGI [2]: >−4.00 M
Log10GI50 [3]: −5.69 M
Log10LC50 [3]: >−4.00 M
Log10TGI [3]: −4.63 M
Log10GI50 [4]: −5.36 M
Log10LC50 [4]: >−4.00 M
Log10TGI [4]: >−4.00 M
Log10GI50 [5]: −5.66 M
Log10LC50 [5]: >−4.00 M
Log10GI50 [6]: −5.49 M
Log10LC50 [6]: >−4.00 M
Log10TGI [6]: >−4.00 M
Log10GI50 [7]: −6.33 M
Log10LC50 [7]: >−4.00 M
Log10TGI [7]: −5.10 M
antiproliferative activity [8]: high antiproliferative activity
Log10GI50 [9]: −5.46 M
Log10LC50 [9]: >−4.00 M
Log10TGI [9]: >−4.00 M
Log10GI50 [10]: −6.67 M
Log10LC50 [10]: >−4.00 M
Log10TGI ([10]; listed as Terephtalate Dimer): −4.70 M
Log10TGI ([10]; listed as terephthalate dimer): 6.20 M
Log10GI50 [11]: −6.38 M
Log10LC50 [11]: >−4.00 M
Log10TGI [11]: −5.17 M
Log10GI50 ([12]; HL-60(TB) (Leukemia)): −7.42 M
Log10LC50 ([12]; HL-60(TB) (Leukemia)): −5.26 M
Log10TGI ([12]; HL-60(TB) (Leukemia)): −6.58 M
Log10GI50 [13]: −6.03 M
Log10LC50 [13]: >−4.00 M
Log10TGI [13]: −4.19 M
Log10GI50 [14]: −6.02 M
Log10LC50 [14]: >−4.00 M
Log10TGI [14]: >−4.00 M
Log10GI50 [15]: −6.28 M
Log10LC50 [15]: >−4.00 M
Log10TGI [15]: >−4.00 M
Log10GI50 [16]: −5.20 M
Log10LC50 [16]: >−4.00 M
Log10TGI [16]: >−4.00 M
Log10GI50 [17]: −6.51 M
Log10LC50 [17]: >−4.00 M
Log10TGI [17]: >−4.00 M
Log10GI50 [18]: −6.24 M
Log10LC50 [18]: >−4.00 M
Log10TGI [18]: >−4.00 M
Log10GI50 [19]: −5.06 M
Log10LC50 [19]: >−4.00 M
Log10TGI [19]: >−4.00 M
Log10GI50 [20]: −6.30 M
Log10LC50 [20]: >−4.00 M
Log10TGI [20]: >−4.00 M
Log10GI50 [21]: −5.66 M
Log10LC50 [21]: >−4.00 M
Log10TGI [21]: −4.45 M
Log10GI50 [22]: −5.18 M
Log10LC50 [22]: >−4.00 M
Log10TGI [22]: >−4.00 M
Log10GI50 [23]: −5.63 M
Log10LC50 [23]: >−4.00 M
Log10TGI [23]: >−4.00 M
Log10GI50 [24]: −6.31 M
Log10LC50 [24]: −5.17 M
Log10TGI [24]: −5.71 M
Log10GI50 [25]: −5.42 M
Log10LC50 [25]: >−4.00 M
Log10TGI [25]: >−4.00 M
Log10GI50 [26]: −5.28 M
Log10LC50 [26]: >−4.00 M
Log10TGI [26]: >−4.00 M
